From article PMC12367838, “Relevance of kinetic interactions and co-formulants for plant protection product liver toxicity in vitro” (Archives of Toxicology, 2025)

Assays:
CYP1A2 = molecular target: T1, CYP1A2 (Homo sapiens, UniProt P05177); experiment: P450-Glo screening system, CYP inhibition; format: biochemical; settings: recombinant human CYP, luciferin-ME
T1 construct: purchased Promega
T1 sequence (P05177 1-516): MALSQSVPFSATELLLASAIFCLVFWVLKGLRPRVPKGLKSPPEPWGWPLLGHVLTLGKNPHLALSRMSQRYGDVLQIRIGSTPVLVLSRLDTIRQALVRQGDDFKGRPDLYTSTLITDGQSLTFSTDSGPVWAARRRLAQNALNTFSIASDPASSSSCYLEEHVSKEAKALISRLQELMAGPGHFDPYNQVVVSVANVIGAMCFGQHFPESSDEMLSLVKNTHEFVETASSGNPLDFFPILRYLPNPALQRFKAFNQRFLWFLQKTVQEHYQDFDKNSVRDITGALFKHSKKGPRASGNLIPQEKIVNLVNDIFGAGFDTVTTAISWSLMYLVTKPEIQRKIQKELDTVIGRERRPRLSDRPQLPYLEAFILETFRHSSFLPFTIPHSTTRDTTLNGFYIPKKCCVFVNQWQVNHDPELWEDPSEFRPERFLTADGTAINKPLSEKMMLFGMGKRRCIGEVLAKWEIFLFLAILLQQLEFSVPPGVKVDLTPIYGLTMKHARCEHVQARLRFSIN
Text: The P450-Glo™ screening systems (Promega; Madison, Wisconsin, USA) were used in this study to explore the inhibitory properties of MDP on the major CYP isoforms involved in xenobiotic metabolism (CYP1A2, CYP2C9, CYP2C19, CYP2D6, and CYP3A4). HepaRG cells were not utilized in this assay to avoid potential cross reactivity since all CYP enzymes are expressed in this cell line. Therefore, this inhibition study relied on recombinant human CYP enzymes integrated in membrane preparation. The principle of the assay is based on the conversion of a luminogenic substrate (100 µM luciferin-ME for CYP1A2, 100 µM luciferin-H for CYP2C9, 50 µM luciferin-H EGE for CYP2C19, 30 µM luciferin-ME EGE for CYP2D6, and 100 µM luciferin-PPXE for CYP3A4) to luciferin by the respective enzyme. The assay was conducted according to the instructions of the supplier. Briefly, eight non-cytotoxic concentrations of MDP or a CYP selective inhibitor were preincubated for 10 min at 37 °C together with the luminogenic substrate, potassium phosphate buffer, and luciferin-free water, and the test compounds were added to white 96-well Costar® plates. After the preincubation, 25 µL of NADPH regeneration system (2.6 mM NADP + , 6.6 mM glucose-6-phosphate, 6.6 mM MgCl2, and 0.8 U/mL glucose-6-phosphate dehydrogenase) was added to each well to initiate CYP reactions. The plates were briefly shaken and taped before they were incubated at 37 °C for 10–30 min depending on the CYP enzyme under investigation. Luminescence of the luciferin product was initiated by adding 50 µL of the luciferin detection reagent. Subsequently, the plates were briefly shaken and then incubated for 20 min at room temperature in order to stabilize the luminescent signal. The luminescence was measured on the Infinite M200 PRO plate reader (Tecan; Männedorf, Switzerland). The measurements were corrected by subtracting the minus P450 control signals from each measurement and represented as changes in luminescence signals (ΔRLU). The ΔRLU values of MDP were compared with the ΔRLU values of the untreated samples and represented as relative changes in luminescence in relation to the control (%). Three independent experiments with three technical replicates were conducted (n = 3). Means and standard deviations for each treatment were calculated before calculating the IC50 values of MDP for each CYP enzyme.
(§1) A linear mixed-effects ANOVA (α = 0.05) described by Pinheiro and Bates ([2000]) followed by a post-hoc Dunnett test for multiple comparisons of treatment groups versus the control was used for statistical analysis of data from cytotoxicity assay, AdipoRed assay, CYP450 inhibition assay as well as mixture effects. R studio (ver. 4.4.1) was used to determine the effective concentration at relative triglyceride induction fold of 1.5 for each test compound.

HepaRG cells = experiment: AdipoRed triglyceride accumulation assay; format: cell-based, human; settings: for Relative triglyceride accumulation: related to medium control
Experimental: Different elements of the liver steatosis AOP were evaluated in this study. Transcriptomics was employed as a tool to investigate the expression of liver steatosis-related genes that occur either as MIE (genes related to NR activation) or molecular and cellular KEs. In addition to gene expression, lipid accumulation in HepaRG cells was conducted to cover molecular KEs. Considering that upstream MIEs occur earlier than subsequent downstream KEs (Alarcan et al. [2021]), we applied different time points (24 h for transcriptomics and 72 h for lipid accumulation) to reflect the temporal relationships between biological events.
HepaRG cells were treated in 96-well plates for 72 h with eight different concentrations of the above-mentioned test compounds, with the highest concentration of each being the highest non-cytotoxic concentration. The synthetic LXR and FXR agonist, T0901317, was used as a positive control at a concentration of 10 µM. After the 72-h incubation, cells were washed with 200 µL phosphate-buffered saline (PBS), and then 200 µL PBS containing 5 µg/mL Hoechst 33,342 (Thermo Fisher Scientific; Waltham, Massachusetts, USA) was added to each well. Thereafter, 5 µL of the AdipoRed reagent was added to each well, and the plates were incubated at 37 °C for 10 min. Subsequently, the fluorescence of AdipoRed was measured at λexc = 485 nm/λemi = 572 nm, and Hoechst 33,342 was measured at λexc = 350 nm/λemi = 451 nm on the Infinite M200 PRO plate reader (Tecan; Männedorf, Switzerland). AdipoRed signals were normalized to Hoechst 33,342 signals to compensate for variations in cell number. Relative triglyceride levels were referred to untreated cells. Each concentration was measured in three technical replicates. Three independent biological replicates were performed (n = 3) and means as well as SD were calculated.
as §1

With C#CCOc1ccc(CCNC(=O)C(OCC#C)c2ccc(Cl)cc2)cc1OC (centres unmarked) [MDP, mandipropamid] the IC50 (CYP1A2) was 28.7 µM, the “IC50 CYP1A2” value (CYP1A2) was 11.8 µg/mL and the Relative triglyceride accumulation (HepaRG cells; 5.00 mg/L, 72 h) was 1.2. For the same compound, the Relative triglyceride accumulation (HepaRG cells; 6.00 mg/L, 72 h) was 1.1, the Relative triglyceride accumulation (HepaRG cells; 8.00 mg/L, 72 h) was 1.3 and the Relative triglyceride accumulation (HepaRG cells; 10.0 mg/L, 72 h) was 1.3. It also gave a Relative triglyceride accumulation (HepaRG cells; 12.0 mg/L, 72 h) of 1.2, a Relative triglyceride accumulation (HepaRG cells; 15.0 mg/L, 72 h) of 1.6 and a Relative triglyceride accumulation (HepaRG cells; 19.0 mg/L, 72 h) of 1.8. For the same compound, the “EC1.5-fold (effective concentration at 1.5 relative triglyceride induction fold)” value (HepaRG cells; HepaRG cells, 72-h incubation) was 14.4 mg/L and the EC1.5-fold (HepaRG cells; HepaRG cells, 72 h) was “≈ 35 µM”.
